This series is described as follows: in vitro. The settings on record: human, hek293t cells.
Regarding `N#CC(=Cc1csc(COc2ccccc2)n1)C(N)=O` [9-B12, 2-cyano-3-[2-(phenoxymethyl)-1,3-thiazol-4-yl]prop-2-enamide], the viability at 48 h, 25 µM came out at 116%.
As for `CCCCNC(=O)C(C#N)=Cc1ccsc1` [9-B13, N-butyl-2-cyano-3-(thiophen-3-yl)prop-2-enamide], the viability at 48 h, 25 µM worked out at 102%.
Take `CNC(=O)C(C#N)=Cc1ccc(F)cc1` [9-B14, 2-cyano-3-(4-fluorophenyl)-N-methylprop-2-enamide]: the viability at 48 h, 25 µM was found to be 109%.
On to `CC(C)c1nc(C=C(C#N)C(=O)NC2CCCCC2)c2ccccn12` [9-B15, 2-cyano-N-cyclohexyl-3-[3-(propan-2-yl)imidazo[1,5-a]pyridin-1-yl]prop-2-enamide], for which the viability at 48 h, 25 µM was found to be 103%.
With `CC(C)NC(=O)C(C#N)=Cc1ccc(-c2ccc([N+](=O)[O-])cc2)s1` [9-B16, 2-cyano-3-[5-(4-nitrophenyl)thiophen-2-yl]-N-(propan-2-yl)prop-2-enamide], the viability at 48 h, 25 µM was determined as 99.6%.
Turning to `Cc1cc(C=C(C#N)C(=O)Nc2cnn(C)c2)c(C)n1C1CCCCC1` [9-B17, 2-cyano-3-(1-cyclohexyl-2,5-dimethyl-1H-pyrrol-3-yl)-N-(1-methyl-1H-pyrazol-4-yl)prop-2-enamide], the viability at 48 h, 25 µM is 96.1%.
The figure for `Cc1nc2cc(NC(=O)C(C#N)=Cc3ccco3)ccc2n1C` [9-B18, 2-cyano-N-(1,2-dimethyl-1H-1,3-benzodiazol-5-yl)-3-(furan-2-yl)prop-2-enamide] is 106%; for `Cc1ccc(NC(=O)C(C#N)=CC2=Cc3ccccc3OC2)cc1` [9-B19, 3-(2H-chromen-3-yl)-2-cyano-N-(4-methylphenyl)prop-2-enamide] it is 119%.
For `N#CC(=Cc1ccco1)C(=O)NCc1nc(-c2ccncc2)cs1` [9-B20, 2-cyano-3-(furan-2-yl)-N-{[4-(pyridin-4-yl)-1,3-thiazol-2-yl]methyl}prop-2-enamide], the viability at 48 h, 25 µM was determined as 109%.
For `CN(C)c1ccc(C=C(C#N)C(=O)Nc2ccc3c(c2)OCCO3)cc1` [9-B21, 2-cyano-N-(2,3-dihydro-1,4-benzodioxin-6-yl)-3-[4-(dimethylamino)phenyl]prop-2-enamide], the viability at 48 h, 25 µM is 110%.
Regarding `COc1ccc(C=C(C#N)C(=O)Nc2cc(C)ccc2C)cc1Cl` [9-B22, 3-(3-chloro-4-methoxyphenyl)-2-cyano-N-(2,5-dimethylphenyl)prop-2-enamide], the viability at 48 h, 25 µM came to 92.9%.
As to `CCCCNC(=O)C(C#N)=Cc1cc(C)cc(C)c1` [9-C03, N-butyl-2-cyano-3-(3,5-dimethylphenyl)prop-2-enamide], the viability at 48 h, 25 µM came out at 122%.
`COc1cc(C)c(C=C(C#N)C(=O)Nc2ccc(C)cc2)cc1C(C)C` [9-C04, 2-cyano-3-[4-methoxy-2-methyl-5-(propan-2-yl)phenyl]-N-(4-methylphenyl)prop-2-enamide]: the viability at 48 h, 25 µM is 127%.
The value for `CCCNC(=O)C(C#N)=Cc1ccc(-n2cncn2)c(C)c1` [9-C05, 2-cyano-3-[3-methyl-4-(1H-1,2,4-triazol-1-yl)phenyl]-N-propylprop-2-enamide] was 96%; that for `CCOc1ccc(C=C(C#N)C(=O)Nc2nccs2)cc1` [9-C06, 2-cyano-3-(4-ethoxyphenyl)-N-(1,3-thiazol-2-yl)prop-2-enamide] was 94.3%; that for `CC(C)NC(=O)C(C#N)=Cc1cccc(Cl)c1Cl` [9-C07, 2-cyano-3-(2,3-dichlorophenyl)-N-(propan-2-yl)prop-2-enamide] was 39.7%.
On to `COc1ccc(NC(=O)C(C#N)=Cc2cccc(O)c2)cc1Cl` [9-C08, N-(3-chloro-4-methoxyphenyl)-2-cyano-3-(3-hydroxyphenyl)prop-2-enamide], for which the viability at 48 h, 25 µM came out at 102%.
Turning to `CC(C)NC(=O)C(C#N)=Cc1ccc(Cl)cc1` [9-C09, 3-(4-chlorophenyl)-2-cyano-N-(propan-2-yl)prop-2-enamide], the viability at 48 h, 25 µM worked out at 86.7%.
On to `C#CCOc1ccccc1C=C(C#N)C(=O)Nc1ccccc1F` [9-C10, 2-cyano-N-(2-fluorophenyl)-3-[2-(prop-2-yn-1-yloxy)phenyl]prop-2-enamide], for which the viability at 48 h, 25 µM turned out to be 80.4%.
For the compound `CCCCNC(=O)C(C#N)=Cc1cc(C)ccc1C` [9-C11, N-butyl-2-cyano-3-(2,5-dimethylphenyl)prop-2-enamide], the viability at 48 h, 25 µM was found to be 93.1%.
In the case of `C=CCNC(=O)C(C#N)=Cc1ccc(-c2ccc(F)cc2)s1` [9-C12, 2-cyano-3-[5-(4-fluorophenyl)thiophen-2-yl]-N-(prop-2-en-1-yl)prop-2-enamide], the viability at 48 h, 25 µM is 111%.
As for `CC(C)NC(=O)C(C#N)=Cc1ccc2ccccc2c1` [9-C13, 2-cyano-3-(naphthalen-2-yl)-N-(propan-2-yl)prop-2-enamide], the viability at 48 h, 25 µM was 77.9%.
Regarding `N#CC(=Cc1ccc(SC(F)(F)F)cc1)C(=O)NC1CC1` [9-C14, 2-cyano-N-cyclopropyl-3-{4-[(trifluoromethyl)sulfanyl]phenyl}prop-2-enamide], the viability at 48 h, 25 µM was found to be 55.5%.
For the compound `CC(C)NC(=O)C(C#N)=Cc1ccccc1OC(C)C` [9-C15, 2-cyano-N-(propan-2-yl)-3-[2-(propan-2-yloxy)phenyl]prop-2-enamide], the viability at 48 h, 25 µM was 112%.
Regarding `N#CC(=Cc1csc(C2CC2)n1)C(=O)Nc1ccccc1C(=O)O` [9-C16, 2-[2-cyano-3-(2-cyclopropyl-1,3-thiazol-4-yl)prop-2-enamido]benzoic acid], the viability at 48 h, 25 µM is 92.9%.
The figure for `N#CC(=Cc1ccsc1)C(=O)Nc1nccs1` [9-C17, 2-cyano-N-(1,3-thiazol-2-yl)-3-(thiophen-3-yl)prop-2-enamide] is 121%; for `N#CC(=Cc1sc2ccccc2c1Cl)C(=O)NC1CC1` [9-C18, 3-(3-chloro-1-benzothiophen-2-yl)-2-cyano-N-cyclopropylprop-2-enamide] it is 86.4%.
Turning to `N#CC(=Cc1cccc(O)c1)C(=O)Nc1ccc(SC(F)F)cc1` [9-C19, 2-cyano-N-{4-[(difluoromethyl)sulfanyl]phenyl}-3-(3-hydroxyphenyl)prop-2-enamide], the viability at 48 h, 25 µM worked out at 99.7%.
On to `COc1cccc(NC(=O)C(C#N)=Cc2c[nH]c(-c3ccccc3)n2)c1` [9-C20, 2-cyano-N-(3-methoxyphenyl)-3-(2-phenyl-1H-imidazol-4-yl)prop-2-enamide], for which the viability at 48 h, 25 µM stood at 108%.
As to `N#CC(=Cc1ccc(F)cc1)C(=O)Nc1cccc2ncccc12` [9-C21, 2-cyano-3-(4-fluorophenyl)-N-(quinolin-5-yl)prop-2-enamide], the viability at 48 h, 25 µM was 118%.
As to `Cc1ccc(C=C(C#N)C(=O)Nc2ccccc2Cl)s1` [9-C22, N-(2-chlorophenyl)-2-cyano-3-(5-methylthiophen-2-yl)prop-2-enamide], the viability at 48 h, 25 µM turned out to be 107%.
With `Cc1nn(C)c(C)c1C=C(C#N)C(=O)Nc1ccc2c(c1)OCCO2` [9-D03, 2-cyano-N-(2,3-dihydro-1,4-benzodioxin-6-yl)-3-(1,3,5-trimethyl-1H-pyrazol-4-yl)prop-2-enamide], the viability at 48 h, 25 µM came out at 112%.
`CCOc1cc2c(cc1C=C(C#N)C(N)=O)OC(C)C2` (stereo not shown) [9-D04, 2-cyano-3-(5-ethoxy-2-methyl-2,3-dihydro-1-benzofuran-6-yl)prop-2-enamide]: the viability at 48 h, 25 µM was found to be 128%.
For the compound `Cc1ccc(NC(=O)C(C#N)=Cc2ccccc2OC(F)F)cc1` [9-D05, 2-cyano-3-[2-(difluoromethoxy)phenyl]-N-(4-methylphenyl)prop-2-enamide], the viability at 48 h, 25 µM was determined as 96.9%.
The figure for `CCOC=C(C#N)C(=O)N1CCN(S(=O)(=O)c2cc[nH]n2)CC1` [9-D06, 3-ethoxy-2-[4-(1H-pyrazole-3-sulfonyl)piperazine-1-carbonyl]prop-2-enenitrile] is 110%.
Consider `COc1ccc2cc(C=C(C#N)C(=O)NCc3ccccc3)ccc2c1` [9-D07, N-benzyl-2-cyano-3-(6-methoxynaphthalen-2-yl)prop-2-enamide], for which the viability at 48 h, 25 µM amounted to 108%.
Consider `N#CC1=C(N2CCOCC2)SC(c2ccc([N+](=O)[O-])cc2)NC1=O` (stereo not shown) [9-D08, 6-(morpholin-4-yl)-2-(4-nitrophenyl)-4-oxo-3,4-dihydro-2H-1,3-thiazine-5-carbonitrile], for which the viability at 48 h, 25 µM came to 112%.
The figure for `N#CC(=Cc1ccc(Cl)cc1)C(=O)Nc1cccc2c1C(=O)NC2=O` [9-D09, 3-(4-chlorophenyl)-2-cyano-N-(1,3-dioxo-2,3-dihydro-1H-isoindol-4-yl)prop-2-enamide] is 105%; for `CN(C)c1ccc(C=C(C#N)C(=O)NCc2ccco2)cc1` [9-D10, 2-cyano-3-[4-(dimethylamino)phenyl]-N-[(furan-2-yl)methyl]prop-2-enamide] it is 101%.
For `CCCn1c(C)cc(C=C(C#N)C(=O)N2CCCCC2)c1C` [9-D11, 3-(2,5-dimethyl-1-propyl-1H-pyrrol-3-yl)-2-(piperidine-1-carbonyl)prop-2-enenitrile], the viability at 48 h, 25 µM turned out to be 106%.
Turning to `Cc1ccc(C)c(NC(=O)C(C#N)=Cc2ccc(N3CCCCC3)o2)c1` [9-D12, 2-cyano-N-(2,5-dimethylphenyl)-3-[5-(piperidin-1-yl)furan-2-yl]prop-2-enamide], the viability at 48 h, 25 µM was 69.5%.
For `Cc1cc(C=C(C#N)C(=O)Nc2nccs2)cc(C)c1O` [9-D13, 2-cyano-3-(4-hydroxy-3,5-dimethylphenyl)-N-(1,3-thiazol-2-yl)prop-2-enamide], the viability at 48 h, 25 µM is 106%.
Consider `CNC(=O)C(C#N)=Cc1cccc(C)c1C` [9-D14, 2-cyano-3-(2,3-dimethylphenyl)-N-methylprop-2-enamide], for which the viability at 48 h, 25 µM worked out at 112%.
As for `CC(NC(=O)C(C#N)=Cc1cc(O)ccc1[N+](=O)[O-])c1ccccc1` (stereo not shown) [9-D15, 2-cyano-3-(5-hydroxy-2-nitrophenyl)-N-(1-phenylethyl)prop-2-enamide], the viability at 48 h, 25 µM turned out to be 101%.
As for `N#CC(=Cc1csc2ccccc12)C(=O)NCc1ccco1` [9-D16, 3-(1-benzothiophen-3-yl)-2-cyano-N-[(furan-2-yl)methyl]prop-2-enamide], the viability at 48 h, 25 µM is 108%.
Regarding `Cc1cccc(NC(=O)C(C#N)=Cc2cc(C)n(C3CC3)c2C)c1` [9-D17, 2-cyano-3-(1-cyclopropyl-2,5-dimethyl-1H-pyrrol-3-yl)-N-(3-methylphenyl)prop-2-enamide], the viability at 48 h, 25 µM stood at 94.3%.

Broadly, the viability is a read-out of living cells in per cent, often relative to untreated cells.

These data come from paper PMC11995724, “Antibiotic target discovery by integrated phenotypic and activity-based profiling of electrophilic fragments” (Cell chemical biology, 2025).
